Test [1] relates to Huh-7 cells containing HCV sub-genomic replicons (Ava.5). The test is described as follows: cells. The class given is cell-based.
The subject of test [2] is HCV sub-genomic replicons (Ava.5). Briefly: microbe, parasite or virus in culture. The class given is cell-based, hepatitis C virus.
A further test deals with HCV. The class given is cell-based. The following applies: 300 nM As2O3 (data not shown).
Setting [3] is: huh-7 hcv replicon cells, 1440 min, 1 µM.
The mark [4] stands for this setting: huh-7 hcv replicon cells, 4320 min, 0.01 µM.
Setting [5] is: huh-7 hcv replicon cells, 4320 min, 0.05 µM.
[6] abbreviates: huh-7 hcv replicon cells, 4320 min, 0.1 µM.
Setting [7] is: huh-7 hcv replicon cells, 4320 min, 1 µM.

Values joined by “and” are separate entries in the source; they are usually repeats but may differ in a detail not shown here. Identical values can stand only once. Like-named read-outs stand apart in the source and are kept apart here.

In general, EC50 refers to the concentration needed to bring the measured effect to its halfway point. In turn, `O=[As]O` [Sodium arsenite] showed an IC50 in test [1] (Hepatitis C virus, Ava5, 24 h) of 10 µM. For the same compound, the half-maximal effective concentration (EC50) in test [2] (Hepatitis C virus, Ava5, 24 h) is 0.25 µM.
In the case of “Potassium antimony tartrate [Potassium antimony tartrate (PAT)]”, in test [1] (read-out: IC50), the IC50 was 35 µM. For the same compound, in test [2] (5 µM), the “inhibition of HCV replication” value is reported as 75 % inhibition of HCV replication at 5 µM of PAT treatment.
On to arsenic trioxide [As2O3], for which, in test [1] (read-out: IC50), the IC50 was 6 µM. Further, the IC50 in test [1] (read-out: ICso (concentration which causes 50% cell death)) was 8.5 µM and 4.8 µM. Also, in test [2], the “inhibition of replication of HCV RNA” value was “dose-dependent manner”. In test [2] (setting [3]), the “negative strand of HCV RNA detected (relative copy number)” value stood at 14.1% and the “positive strand of HCV RNA detected (relative copy number)” value was 15.6%. Also, in test [2] (setting [4]), the “relative HCV RNA level (negative strand)” value is listed as 135.3% and the “relative HCV RNA level (positive strand)” value is 95.1%. In addition, in test [2] (setting [5]), the “relative HCV RNA level (negative strand)” value is listed as 74.3% and the “relative HCV RNA level (positive strand)” value is 70%. Moreover, in test [2] (setting [6]), the “relative HCV RNA level (negative strand)” value was 67.5% and the “relative HCV RNA level (positive strand)” value is listed as 57.5%. Besides, in test [2] (setting [7]), the “negative strand HCV RNA detected (relative copy number)” value amounted to 2.6% and the “positive strand RNA detected (relative copy number)” value stood at 6.1%. Further, the 50% effective concentration (EC50) in test [2] (read-out: EC50) was 0.26 µM and 0.19 µM and 0.27 µM and 0.16 µM and 0.2 µM. Besides, the “inhibition of the replication” value with HCV is reported as “completely”.

For the origin of these results see patent publication EP1369120B1 (priority 2002, dated 2003).
